Measurements as given in US10988477B2 (Merck Patent GmbH, priority 2018, dated 2021).
pKi: −log10 of the molar value.

Biological target: GCN2 kinase (Homo sapiens, UniProt Q9P2K8)
Test: GCN2 enzyme inhibition assay (Transcreener ADP2 fluorescence polarization)
Type: biochemical
Conditions: Enzyme activity for compounds of Formula IV; Ki(app), 280 μM ATP, 25° C.
In short: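 Run at 25 °C in 25 mM Tris-HCl pH 7.5, 50 mM NaCl, 10 mM MgCl2, 1 mM DTT with 4 nM GCN2, 280 μM ATP and 200 μM (RS)7 peptide; compound (0–8 μM final) preincubated 10 min, reaction 1 h. ADP read by antibody/tracer FP; IC50 and Ki(app) from tight-binding fit.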

GCN2 kinase, sequence (Q9P2K8 whole entry): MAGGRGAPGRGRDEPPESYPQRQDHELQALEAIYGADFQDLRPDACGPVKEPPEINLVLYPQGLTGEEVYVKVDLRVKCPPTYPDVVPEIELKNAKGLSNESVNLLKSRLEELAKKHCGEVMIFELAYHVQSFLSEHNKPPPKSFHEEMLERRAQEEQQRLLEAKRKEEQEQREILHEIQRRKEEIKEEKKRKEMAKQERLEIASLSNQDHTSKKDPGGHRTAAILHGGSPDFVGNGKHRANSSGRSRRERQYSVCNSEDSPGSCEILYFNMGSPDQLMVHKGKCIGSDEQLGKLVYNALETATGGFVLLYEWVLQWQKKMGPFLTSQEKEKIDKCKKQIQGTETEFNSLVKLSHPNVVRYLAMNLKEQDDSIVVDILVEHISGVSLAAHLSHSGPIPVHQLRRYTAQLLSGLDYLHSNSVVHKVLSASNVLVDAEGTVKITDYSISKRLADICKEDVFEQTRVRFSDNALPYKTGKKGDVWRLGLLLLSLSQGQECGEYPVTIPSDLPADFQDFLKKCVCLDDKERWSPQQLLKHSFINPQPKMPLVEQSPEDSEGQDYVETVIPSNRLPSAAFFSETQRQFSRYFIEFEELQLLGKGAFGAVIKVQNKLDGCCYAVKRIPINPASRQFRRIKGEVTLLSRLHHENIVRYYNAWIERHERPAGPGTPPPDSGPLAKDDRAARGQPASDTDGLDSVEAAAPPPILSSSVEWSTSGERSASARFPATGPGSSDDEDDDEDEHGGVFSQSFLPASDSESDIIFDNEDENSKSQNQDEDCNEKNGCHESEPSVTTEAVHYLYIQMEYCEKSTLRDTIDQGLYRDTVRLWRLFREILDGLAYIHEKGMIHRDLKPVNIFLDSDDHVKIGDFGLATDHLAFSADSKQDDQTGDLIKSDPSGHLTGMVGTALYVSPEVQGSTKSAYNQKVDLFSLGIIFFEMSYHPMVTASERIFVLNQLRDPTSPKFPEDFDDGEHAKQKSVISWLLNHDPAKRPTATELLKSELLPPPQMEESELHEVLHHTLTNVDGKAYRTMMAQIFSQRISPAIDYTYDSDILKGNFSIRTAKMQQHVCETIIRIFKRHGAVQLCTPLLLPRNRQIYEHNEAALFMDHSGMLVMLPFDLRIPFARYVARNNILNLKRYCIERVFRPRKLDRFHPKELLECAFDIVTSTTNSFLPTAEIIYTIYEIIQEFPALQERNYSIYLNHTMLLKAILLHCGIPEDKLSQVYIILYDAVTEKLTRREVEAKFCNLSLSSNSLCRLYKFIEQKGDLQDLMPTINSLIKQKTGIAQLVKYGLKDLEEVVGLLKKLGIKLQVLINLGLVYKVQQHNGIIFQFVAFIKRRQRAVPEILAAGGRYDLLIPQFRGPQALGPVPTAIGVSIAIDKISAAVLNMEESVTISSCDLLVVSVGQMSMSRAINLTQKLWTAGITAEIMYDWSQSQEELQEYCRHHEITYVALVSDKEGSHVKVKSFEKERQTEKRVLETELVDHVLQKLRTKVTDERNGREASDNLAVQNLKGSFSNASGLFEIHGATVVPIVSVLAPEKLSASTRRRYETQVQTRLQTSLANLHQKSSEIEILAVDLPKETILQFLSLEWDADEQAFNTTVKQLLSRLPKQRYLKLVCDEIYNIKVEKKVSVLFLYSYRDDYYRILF

| SMILES | pKi |
| --- | --- |
| NS(=O)(=O)C1CCCN(c2ccnc(-c3cnc4cnc(C(F)(F)F)cn34)n2)C1 (stereo not drawn) [IV-536, 1-(2-(6-(Trifluoromethyl)imidazo[1,2-a]pyrazin-3-yl)pyrimidin-4-yl)piperidine-3-sulfonamide] | 6.00 to 7.00 |
| CC(=O)NCC1CCN(c2ccnc(-c3cnc4cnc(C(F)(F)F)cn34)n2)C1 (stereo not drawn) [IV-537, N-((1-(2-(6-(Trifluoromethyl)imidazo[1,2-a]pyrazin-3-yl)pyrimidin-4-yl)pyrrolidin-3-yl)methyl)acetamide] | 6.00 to 7.00 |
| FC(F)(F)c1cn2c(-c3nccc(N4CCCC(n5cncn5)C4)n3)cnc2cn1 (stereo not drawn) [IV-547, 3-(4-(3-(1H-1,2,4-Triazol-1-yl)piperidin-1-yl)pyrimidin-2-yl)-6-(trifluoromethyl)imidazo[1,2-a]pyrazine] | 6.00 to 7.00 |
| FC(F)(F)c1cn2c(-c3nccc(N4CCC(c5ccncc5)C4)n3)cnc2cn1 (stereo not drawn) [IV-550, 3-(4-(3-(Pyridin-4-yl)pyrrolidin-1-yl)pyrimidin-2-yl)-6-(trifluoromethyl)imidazo[1,2-a]pyrazine] | 6.00 to 7.00 |
| FC(F)(F)c1cn2c(-c3nccc(N4CCC(c5ccccc5)C4)n3)cnc2cn1 (stereo not drawn) [IV-556, 3-(4-(3-Phenylpyrrolidin-1-yl)pyrimidin-2-yl)-6-(trifluoromethyl)imidazo[1,2-a]pyrazine] | 6.00 to 7.00 |
| O=C1CCCN1CC1CCN(c2ccnc(-c3cnc4cnc(C(F)(F)F)cn34)n2)C1 (stereo not drawn) [IV-557, 1-((1-(2-(6-(Trifluoromethyl)imidazo[1,2-a]pyrazin-3-yl)pyrimidin-4-yl)pyrrolidin-3-yl)methyl)pyrrolidin-2-one] | 6.00 to 7.00 |

Other lines, results leading:

| pKi | SMILES |
| --- | --- |
| 6.00 to 7.00 | CC1(C(N)=O)CCCN(c2ccnc(-c3cnc4cnc(C(F)(F)F)cn34)n2)C1 (stereo not drawn) [IV-539, 3-Methyl-1-(2-(6-(trifluoromethyl)imidazo[1,2-a]pyrazin-3-yl)pyrimidin-4-yl)piperidine-3-carboxamide] |
| 6.00 to 7.00 | O=C1NCCC12CCCN(c1ccnc(-c3cnc4cnc(C(F)(F)F)cn34)n1)C2 (stereo not drawn) [IV-542, 7-(2-(6-(Trifluoromethyl)imidazo[1,2-a]pyrazin-3-yl)pyrimidin-4-yl)-2,7-diazaspiro[4.5]decan-1-one] |
| 6.00 to 7.00 | FC(F)(F)c1cn2c(-c3nccc(N4CCC(c5ccccn5)C4)n3)cnc2cn1 (stereo not drawn) [IV-552, 3-(4-(3-(Pyridin-2-yl)pyrrolidin-1-yl)pyrimidin-2-yl)-6-(trifluoromethyl)imidazo[1,2-a]pyrazine] |
| 6.00 to 7.00 | FC(F)(F)c1cn2c(-c3nccc(N4CCC(N5CCOCC5)C4)n3)cnc2cn1 (stereo not drawn) [IV-553, 4-(1-(2-(6-(Trifluoromethyl)imidazo[1,2-a]pyrazin-3-yl)pyrimidin-4-yl)pyrrolidin-3-yl)morpholine] |
| 6.00 to 7.00 | CN1CCCC2(CCN(c3ccnc(-c4cnc5cnc(C(F)(F)F)cn45)n3)C2)C1=O (stereo not drawn) [IV-554, 7-Methyl-2-(2-(6-(trifluoromethyl)imidazo[1,2-a]pyrazin-3-yl)pyrimidin-4-yl)-2,7-diazaspiro[4.5]decan-6-one] |
| 6.00 to 7.00 | CC1CN(c2ccnc(-c3cnc4cnc(C(F)(F)F)cn34)n2)CC1C (stereo not drawn) [IV-555, 3-(4-(3,4-Dimethylpyrrolidin-1-yl)pyrimidin-2-yl)-6-(trifluoromethyl)imidazo[1,2-a]pyrazine] |
| 6.00 to 7.00 | FC(F)(F)c1cn2c(-c3nccc(N4CCC(COc5ccccc5)C4)n3)cnc2cn1 (stereo not drawn) [IV-559, 3-(4-(3-(Phenoxymethyl)pyrrolidin-1-yl)pyrimidin-2-yl)-6-(trifluoromethyl)imidazo[1,2-a]pyrazine] |
| 6.00 to 7.00 | O=C1NC(=O)C2(CCN(c3ccnc(-c4cnc5cnc(C(F)(F)F)cn45)n3)C2)N1 (stereo not drawn) [IV-560, 7-(2-(6-(Trifluoromethyl)imidazo[1,2-a]pyrazin-3-yl)pyrimidin-4-yl)-1,3,7-triazaspiro[4.4]nonane-2,4-dione] |
| 6.00 to 7.00 | FC(F)(F)c1cn2c(-c3nccc(N4CCCC4Cc4ccccc4)n3)cnc2cn1 (stereo not drawn) [IV-561, 3-(4-(2-Benzylpyrrolidin-1-yl)pyrimidin-2-yl)-6-(trifluoromethyl)imidazo[1,2-a]pyrazine] |
